Test results as given in patent US5670538A, “Use of prodelphinidins for obtaining medicaments intended for the treatment of arthrosis” (Laboratoires Dolisos, priority 1992, dated 1997).
Read-outs that look alike come from different tables or passages of the source.

Columns and labels:
[1] = system: polymorphonuclear cells (PMNs); assay: Production of the superoxide anion by the polymorphonuclear cells (PMNs), reduction of ferricytochrome C; assay type: cell-based; conditions: 0.032 mM; phorbol myristate acetate; no conclusion possible on superoxide inhibition
Description: 10. Production of the superoxide anion (O°^2) by the polymorphonuclear cells (PMNs).
This is measured with a double beam spectrophotometer which allows the reduction of ferricytochrome C by O°2 tc be monitored. The incubation medium (2.5 ml) is constituted by PBS buffer containing glucose (7.5 mM), ferricytochrome C (0.956 mM), CaCl2 (2.3 mM), MgCl2 (1.1 mM), 7.5.10^6 of cells and the substance to be tested at a concentration of 0.032 mM. The reaction is triggered by adding phorbol myristate acetate at a final concentration of 0.012 mM and the reduction of the cytochrome C is monitored at 550 nm for 10 minutes. The reference cell contains the same material as that described above with an additional 48 μg of superoxide dismutase (SOD)/ml of medium.

[2] = system: human articular chondrocytes; assay: Radioimmunoassay of cartilaginous proteoglycans (PG) produced in tridimensional culture of human chondrocytes; assay type: cell-based; conditions: for PG in the clusters over 12 days: 0-12 days
Text: The model used for testing the proanthocyanidols, namely the tridimensional culture of human chondrocytes allows chondrorepair to be quantified by the production of matrix substances: type II collagen, proteoglycans, and chondroresorption by the reduction in the levels of prostaglandin E2 and of OH° and O°2 type free radicals produced.
1. Tridimensional culture of human chondrocytes
The technique used has been described in detail (Bassleer et al., 1986).
Briefly, human articular chondrocytes are cultivated in DMEM (Dulbecco's Modification of Eagle's Medium--ICN--Gand, Belgium) with either Ultroser G 1% (GIBCO, Gand, Belgium) or 10% of foetal calf serum (ICN--Gand--Belgium), and 50 μg of ascorbic acid/ml added to it. The cartilage originates from the apparently normal zone of heads of human femur suffering from arthrosis, immediately after an operation carried out to insert a total hip prosthesis; it can also originate from the head of a healthy femur, but which has undergone a traumatism and has had to be replaced. This cartilage is then digested by clostridial collagenase 1 mg/ml (Boehringer-Mannheim, Germany) in a buffer (NaCl 120 mM, CaCl2 1 mM, KCl 5 mM, KH2 PO4 1 mM, NaHCO3 25 mM, glucose 2 mM and Hepes 30 mM, pH 7.4) for 24 hours. After 6 successive washings and centrifugations, the chondrocytes, isolated from their matrix, are cultured in flasks (10^6 cells/2 ml of culture medium) placed on a gyrator (10 rpm). The cultures are kept at 37° C. in an atmosphere of air 95%-CO2 5% (Bassleer et al., 1986). Cultivated under these conditions, after 4 to 5 days the chondrocytes form a tridimensional cluster in each flask. These clusters, which at first have a flocculent appearance, then tend to condense during the culture. After two weeks, their diameter is, in general, from 1 to 2 mm.
The fresh weight of the clusters increases with the duration of the culture, above all during the few first days.
2. Radioimmunoassay of cartilaginous proteoglycans (PG)
The PGs are measured with a radioimmunoassay (RIA) which is specific and sensitive to human cartilaginous PGs (Gysen et al. 1984). The PGs were extracted from human cartilage, according to the methods described by Roughley et al., (1981) and by Bayliss and Venn (1980). The antiserum against the cartilaginous PGs was obtained from the rabbit according to the technique of Vaitukaitis et al. (1971). The radioimmunoassay is carried out in a 0.4 ml volume consisting of 0.1 ml of tracer solution (15000 to 20000 cpm ^125 I-PG, labelled by the chloramine T method (Greenwood, 1973). 0.1 ml of anti-PG antiserum diluted to 1/5000 in phosphate-buffered saline (PBS-50 mM PO4, 150 mM NaCl ), containing BSA (5 g/l bovine serum albumin and 6.7 mM sodium azide) (incubation buffer) and 0.2 ml of several dilutions of the culture medium or of the cluster extract or also of the antigen (0.5 -500 ng/tube).
After four days at 4° C., the free PGs* (radioactive PGs) are separated from the PG*-antibody complexes by double precipitation (Franchimont et al., 1983).
The sensitivity of the assay is 0.6 ng/tube. The accuracy of measurement is of the order of 4%. The coefficients of the intra- and inter assay variation are less than 10% and 20% respectively.
The antibodies are directed against the antigenic determinants of the central protein of PG. There is a complete crossed reaction with human PGs of cartilage from the ribs, vertebral disks and trachea, even with PGs extracted from veins or arteries. There is no cross reaction with glycosaminoglycans or with PGs extracted from foetal tissues or the small PGs from bone.
The PGs are measured directly in the culture medium. As for the chondrocyte clusters, they are washed 3 times in a phosphate-buffered saline (PBS-50 mM PO4, 150 mM NaCl pH 7.4) containing protease inhibitors (Oegema et al., 1975:100 mM 6-aminohexanoic acid, 10 mM EDTA, 50 mM benzamidine hydrochloride, 5.10^-8 M trypsin inhibitor, 6.7 mM sodium azide and 200 U/ml superoxide dismutase). […]

## Oc1cc(O)c2c(c1)O[C@H](c1cc(O)c(O)c(O)c1)[C@@H](O)[C@@H]2c1c(O)cc(O)c2c1O[C@H](c1cc(O)c(O)c(O)c1)[C@@H](O)C2 [Substance Ib, GC-(4 alpha→8) GC]
[1]
  Reduction of ferricytochrome C by PMNs: strongly reduced
[2]; 1% Ultroser G, 1 μg/ml
  PG in the clusters over 12 days: 742 ± 62 ng/μg DNA
  Concentrations of PG in the clusters, effect in words: no significant effect
[2]; 1% Ultroser G, 10 μg/ml
  PG in the clusters over 12 days: 931 ± 24 ng/μg DNA
[2]; 1% Ultroser G, 100 μg/ml
  PG in the clusters over 12 days: 1108 ± 45 ng/μg DNA
[2]; 1% Ultroser G, culture time 0-4 days, 1 μg/ml
  PGs released in the culture medium: 13.0 ± 1.22 μg/μg DNA/96 h
[2]; 1% Ultroser G, culture time 0-4 days, 10 μg/ml
  PGs released in the culture medium: 20.4 ± 3.0 μg/μg DNA/96 h
[2]; 1% Ultroser G, culture time 0-4 days, 100 μg/ml
  PGs released in the culture medium: 28.2 ± 2.92 μg/μg DNA/96 h
[2]; 1% Ultroser G, culture time 4-8 days, 1 μg/ml
  PGs released in the culture medium: 3.45 ± 0.56 μg/μg DNA/96 h
[2]; 1% Ultroser G, culture time 4-8 days, 10 μg/ml
  PGs released in the culture medium: 4.78 ± 0.56 μg/μg DNA/96 h
[2]; 1% Ultroser G, culture time 4-8 days, 100 μg/ml
  PGs released in the culture medium: 5.65 ± 0.24 μg/μg DNA/96 h
[2]; 1% Ultroser G, culture time 8-12 days, 1 μg/ml
  PGs released in the culture medium: 0.72 ± 0.08 μg/μg DNA/96 h
[2]; 1% Ultroser G, culture time 8-12 days, 10 μg/ml
  PGs released in the culture medium: 1.00 ± 0.12 μg/μg DNA/96 h
[2]; 1% Ultroser G, culture time 8-12 days, 100 μg/ml
  PGs released in the culture medium: 1.32 ± 0.01 μg/μg DNA/96 h
[2]; 1% Ultroser G, cumulative, 1 μg/ml
  Proteoglycans released during the 12 days of culture, Abs: 17.2 μg/μg DNA/12 days
[2]; 1% Ultroser G, cumulative, 10 μg/ml
  Proteoglycans released during the 12 days of culture, Abs: 26.3 μg/μg DNA/12 days
[2]; 1% Ultroser G, cumulative, 100 μg/ml
  Proteoglycans released during the 12 days of culture, Abs: 35.2 μg/μg DNA/12 days
[2]; Homo sapiens, Chondrocyte, 288 h, 1% Ultroser G, cumulative, 1 μg/ml, control = 100, read-out: Proteoglycans released during the 12 days of culture, %
  activity at 1 µg/mL: 98%
[2]; Homo sapiens, Chondrocyte, 288 h, 1% Ultroser G, cumulative, 10 μg/ml, control = 100, read-out: Proteoglycans released during the 12 days of culture, %
  activity at 10 µg/mL: 149%
[2]; Homo sapiens, Chondrocyte, 288 h, 1% Ultroser G, cumulative, 100 μg/ml, control = 100, read-out: Proteoglycans released during the 12 days of culture, %
  activity at 100 µg/mL: 200%
[2]; Homo sapiens, Chondrocyte, foetal calf serum, Table 14, 0-4 days, 10 μg/ml, control = 100%, read-out: PG in the culture medium, % of control
  activity at 10 µg/mL: 117%
[2]; Homo sapiens, Chondrocyte, foetal calf serum, Table 14, 0-4 days, 100 μg/ml, control = 100%, read-out: PG in the culture medium, % of control
  activity at 100 µg/mL: 184%
[2]; Homo sapiens, Chondrocyte, foetal calf serum, Table 14, 4-8 days, 10 μg/ml, control = 100%, read-out: PG in the culture medium, % of control
  activity at 10 µg/mL: 117%
[2]; Homo sapiens, Chondrocyte, foetal calf serum, Table 14, 4-8 days, 100 μg/ml, control = 100%, read-out: PG in the culture medium, % of control
  activity at 100 µg/mL: 136%
[2]; Homo sapiens, Chondrocyte, foetal calf serum, Table 15, 0-4 days, 10 μg/ml, control = 100%, read-out: PG in the culture medium, % of control
  activity at 10 µg/mL: 134%
[2]; Homo sapiens, Chondrocyte, foetal calf serum, Table 15, 0-4 days, 100 μg/ml, control = 100%, read-out: PG in the culture medium, % of control
  activity at 100 µg/mL: 149%
[2]; Homo sapiens, Chondrocyte, foetal calf serum, Table 15, 4-8 days, 10 μg/ml, control = 100%, read-out: PG in the culture medium, % of control
  activity at 10 µg/mL: 125%
[2]; Homo sapiens, Chondrocyte, foetal calf serum, Table 15, 4-8 days, 100 μg/ml, control = 100%, read-out: PG in the culture medium, % of control
  activity at 100 µg/mL: 137%
[2]; Homo sapiens, Chondrocyte, foetal calf serum, Table 16, 0-8 days, 10 μg/ml, control = 100%, read-out: PG in the clusters over 8 days, % of control
  activity at 10 µg/mL: 141%
[2]; Homo sapiens, Chondrocyte, foetal calf serum, Table 16, 0-8 days, 100 μg/ml, control = 100%, read-out: PG in the clusters over 8 days, % of control
  activity at 100 µg/mL: 146%
[2]; Homo sapiens, Chondrocyte, foetal calf serum, Table 17, 0-8 days, 10 μg/ml, control = 100%, read-out: PG in the clusters over 8 days, % of control
  activity at 10 µg/mL: 126%
[2]; Homo sapiens, Chondrocyte, foetal calf serum, Table 17, 0-8 days, 100 μg/ml, control = 100%, read-out: PG in the clusters over 8 days, % of control
  activity at 100 µg/mL: 144%
[2]; foetal calf serum, 10 and 100 μg/ml
  PGs in the clusters, effect in words: significantly increased
[2]; foetal calf serum, Table 14, 0-4 days, 10 μg/ml
  PG in the culture medium: 7.6 ± 0.41 μg/μg DNA - 96 H
[2]; foetal calf serum, Table 14, 0-4 days, 100 μg/ml
  PG in the culture medium: 11.9 ± 2.09 μg/μg DNA - 96 H
[2]; foetal calf serum, Table 14, 4-8 days, 10 μg/ml
  PG in the culture medium: 2.32 ± 0.21 μg/μg DNA - 96 H
[2]; foetal calf serum, Table 14, 4-8 days, 100 μg/ml
  PG in the culture medium: 2.71 ± 0.24 μg/μg DNA - 96 H
[2]; foetal calf serum, Table 15, 0-4 days, 10 μg/ml
  PG in the culture medium: 7.1 ± 0.36 μg/μg DNA - 96 H
[2]; foetal calf serum, Table 15, 0-4 days, 100 μg/ml
  PG in the culture medium: 7.9 ± 0.30 μg/μg DNA - 96 H
[2]; foetal calf serum, Table 15, 4-8 days, 10 μg/ml
  PG in the culture medium: 2.1 ± 1.16 μg/μg DNA - 96 H
[2]; foetal calf serum, Table 15, 4-8 days, 100 μg/ml
  PG in the culture medium: 2.3 ± 0.13 μg/μg DNA - 96 H
[2]; foetal calf serum, Table 16, 0-8 days, 10 μg/ml
  PG in the clusters over 8 days: 1108 ± 166 ng/μg DNA
[2]; foetal calf serum, Table 16, 0-8 days, 100 μg/ml
  PG in the clusters over 8 days: 1142 ± 110 ng/μg DNA
[2]; foetal calf serum, Table 17, 0-8 days, 10 μg/ml
  PG in the clusters over 8 days: 724.0 ± 72.45 ng/μg DNA
[2]; foetal calf serum, Table 17, 0-8 days, 100 μg/ml
  PG in the clusters over 8 days: 832.0 ± 59.10 ng/μg DNA
